Experimental data: article PMC8626775, “Anti-schistosomal activities of quinoxaline-containing compounds: From hit identification to lead optimisation” (European Journal of Medicinal Chemistry, 2021)
Values joined by “and” are separate entries in the source; they are usually repeats but may differ in a detail not shown here. Equal entries are not always repeated. “Also recorded” adds a separate entry of the source. Where two headings read alike, the source gives them in different places.

Key:
S. mansoni miracidia = S. mansoni miracidia to sporocyst transformation screen, 48 h; format: cell-based, Schistosoma mansoni
Description: Following hepatic portal vein perfusion of TO mice, experimentally infected 7 weeks previously, the mouse livers were collected to isolate parasite eggs. Briefly, the infected tissues were homogenised in double saline solution (1.7% w/v NaCl) using a Waring blender. The homogenates were passed through a 0.45 μm filter to retain egg material and the resulting filtered solution was collected in a volumetric flask. Miracidia hatching was induced by exposure of eggs to light in artificial river water (e.g. Lepple water). The resulting miracidial suspension was collected, washed with Chernin's balanced salt solution (CBSS) and enumerated prior to being used for in vitro miracidia to sporocyst screens, as previously described. […] Each treatment was set up in duplicate and parasites cultured in CBSS with 1% DMSO were set up as negative controls. After 48 h incubation at 26 °C, dead, fully transformed and partially transformed miracidia were enumerated as previously described [[18],[64], [65], [66]].

S. mansoni adult worms = assay: S. mansoni adult worm motility screen (WormassayGP2), 72 h; format: cell-based, Schistosoma mansoni; conditions: for EC50: Schistosoma mansoni
Outline: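 Seven-week adult S. mansoni worms, perfused from infected mice, were exposed in duplicate (1–3 pairs/well) to […] compound in 0.5% DMSO for 72 h at 37 °C, 5% CO2. Motility was scored by image-based WormassayGP2, and eggs were counted afterwards.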

[1] = system: Adult S. haematobium worms; assay: In vitro screening of S. haematobium adults at 100 nM (WormAssay motility, descriptors, severity score); format: cell-based, Schistosoma haematobium; conditions: for Effect on S. haematobium adult worms: 5, 24, 48 and 72 h; for SEVERITY SCORES 5 h / SEVERITY SCORES 24 h / SEVERITY SCORES 48 h / SEVERITY SCORES 72 h: max = 4, one line per replicate
Method: (§1) For each species, parasite recovery involved reverse perfusion of the hepatic portal and mesenteric system using DMEM (Fisher Scientific). Parasites were washed six times with Basch 169 medium supplemented with 100 U/ml penicillin and 100 μg/ml streptomycin before manually distributing approximately 5 males per well (on occasion 1 or 2 females might also be present) of a 24-well plate (Corning Costar 3524). […] The next morning, a final concentration of 100 nM compound (in 1 μL DMSO) was added to each well and the final volume made up to 2 ml with Basch 169 medium supplemented with antibiotics and FBS. Each compound was tested in triplicate (except for some instances tested in duplicate). […] The phenotypic characterisation of compound effects focused on male worms due to the greater range of their motility characteristics that include flexing, bending, stretching, sucker walking and adherence, compared to the more sedentary female worms. In addition to descriptors, WormAssay, as adapted for the schistosome, was used to measure average worm motility per well [72, 73].

[2] = system: adult S. japonicum male worms; assay: In vitro screening of S. japonicum adults at 100 nM (WormAssay motility, descriptors, severity score); format: cell-based, Schistosoma japonicum; set-up: key to DESCRIPTORS 48 h / DESCRIPTORS 72 h: Dark = dark; S = Slow; S-uncoord = uncoordinated slow movements; O-uncoord = uncoordinated fast movements; On sides = male worms are not adhering to dish with ventral sucker; Shrunk = worms are not flexing and are smaller than usual; Teg damage = outer surface (tegument of the worm) is damaged; Deg= degenerating; D = Dead; conditions: for Effect on S. japonicum adult male worms: 5, 24, 48 and 72 h; for SEVERITY SCORES 5 h / SEVERITY SCORES 24 h / SEVERITY SCORES 48 h / SEVERITY SCORES 72 h: max = 4, one line per replicate
Method: as §1

S. mansoni schistosomula = S. mansoni schistosomula high-throughput phenotype and motility screen (Roboworm), 72 h; format: cell-based, Schistosoma mansoni; conditions: for EC50: Schistosoma mansoni
Outline: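 Newly transformed schistosomula (S. mansoni PR-1, mechanically transformed cercariae), 120 per well, exposed to compounds at a single concentration or two-fold titrations for 72 h at 37 °C, 5% CO2.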

in vitro = conditions: human, TK6 lymphoblastoid cells
Method: The in vitro micronucleus (MN) assay was employed for the assessment of chromosome damage. Human, p53 competent, lymphoblastoid TK6 cells (Cat. No. 95111735) were used in this study and obtained from the European Collection of Authenticated Cell Cultures (ECACC)). RPMI 1640 (Gibco, Paisley, UK) culture media supplemented with 1% penicillin/streptomycin (100 U/ml Penicillin and 100 μg/ml Streptomycin), 10% heat inactivated horse serum (Gibco, Paisley, UK), 1% L-glutamine (Gibco, Paisley, UK) and hygromycine-B was used for TK6 cell culture. Cells were incubated at 37 °C in a humidified atmosphere of 5% (v/v) CO2.

[3] = Table 4, Series A, read-out: Anti-schistosomal activity EC50 Adult (nM) Motility
[4] = Table 2, 72 h, titrations 0.0095–5 μM, WormassayGP2, read-out: Activity on adult worms (EC50, μM - 72 h) Motility
[5] = S. japonicum, one line per replicate
[6] = 72 h, Table 2, average of phenotype and motility EC50, 72 h, read-out: Activity on schistosomula (EC50, μM - 72 h) Average
[7] = 72 h, Table 2, motility, 72 h, three replicate titrations (0.313–10 μM), read-out: Activity on schistosomula (EC50, μM - 72 h) M
[8] = 72 h, Table 2, phenotype, 72 h, three replicate titrations (0.313–10 μM), read-out: Activity on schistosomula (EC50, μM - 72 h) P
[9] = Table 4, Series A, read-out: Anti-schistosomal activity EC50 Schistosomula (μM) Motility
[10] = Table 4, Series A, read-out: Anti-schistosomal activity EC50 Schistosomula (μM) Phenotype

Row | Compound | EC50 (S. mansoni adult worms; [3]) [nM] | EC50 (S. mansoni adult worms; [4]) [nM] | Effect on S. haematobium adult worms [1] | SEVERITY SCORES 5 h ([1]; S. haematobium) | SEVERITY SCORES 24 h ([1]; S. haematobium, 24 h) | SEVERITY SCORES 48 h ([1]; S. haematobium, 48 h) | SEVERITY SCORES 72 h ([1]; S. haematobium, 72 h) | Effect on S. japonicum adult male worms [2] | SEVERITY SCORES 5 h ([2]; S. japonicum) | SEVERITY SCORES 24 h ([2]; S. japonicum, 24 h) | SEVERITY SCORES 48 h ([2]; S. japonicum) | DESCRIPTORS 48 h [2, 5] | SEVERITY SCORES 72 h ([2]; S. japonicum) | DESCRIPTORS 72 h [2, 5] | EC50 (S. mansoni schistosomula; [6]) [µM] | EC50 (S. mansoni schistosomula; [7]) [µM] | EC50 (S. mansoni schistosomula; [8]) [µM] | EC50 (S. mansoni schistosomula; [9]) [µM] | EC50 (S. mansoni schistosomula; [10]) [µM] | further results
1 | O=[N+]([O-])c1ccc2nc(Nc3cc(C(F)(F)F)ccc3F)c(Nc3cc(C(F)(F)F)ccc3F)nc2c1 [Compound 33, N2, N3-bis(2-fluoro-5-(trifluoromethyl)phenyl)-6-nitroquinoxaline-2,3-diamine] | 5.6 | 5.6 | best activity | 0 | 2 | 3 | 4 | essentially lethal | 0 | 0 | 4 | Dying, deg | 4 | Dying, D | 0.15 | 0.15 | 0.15 | 0.15 | 0.15 | Effect on miracidia at 0.5 μM (S. mansoni miracidia; 0.5 μM, lowest concentration tested): parasite death; Onset time on S. haematobium [1]: ≤ 24 h; DESCRIPTORS 24 h ([1]; S. haematobium, 24 h, one line per replicate): S, on sides; also recorded: S, onsides; DESCRIPTORS 48 h ([1]; S. haematobium, 48 h, one line per replicate): S, dark on sides; DESCRIPTORS 72 h ([1]; S. haematobium, 72 h, one line per replicate): S, deg, on sides; Onset time on S. japonicum [2]: ≤ 24 h; DESCRIPTORS 24 h ([2]; S. japonicum, 24 h, one line per replicate): Dark, S, on sides; EC50 (S. mansoni schistosomula; 72 h, Table S7, motility, 95% CI in brackets, read-out: Activity on schistosomula (EC50, µM - 72 h) (95% CI) M): 0.15 µM; EC50 (S. mansoni schistosomula; 72 h, Table S7, phenotype, 95% CI in brackets, read-out: Activity on schistosomula (EC50, µM - 72 h) (95% CI) P): 0.15 µM
2 | O=[N+]([O-])c1ccc2nc(Nc3ccc(Cl)c(Cl)c3)c(Nc3ccc(Cl)c(Cl)c3)nc2c1 [Compound 22, N^2, N^3-bis(3,4-dichlorophenyl)-6-nitroquinoxaline-2,3-diamine] | 84.7 | 84.7 | mainly inactive | 0 | 0 | 0 | 0 | decreased motility starting at 48 h | 0 | 0 | 1 and 2 | S and S, on sides | 2 | S+, on sides | 0.44 | 0.42 | 0.47 | 0.42 | 0.47 | Effect on miracidia at 5 μM (S. mansoni miracidia; 5 μM in 1% DMSO): not lethal; Reduction of miracidia to sporocyst transformation at 5 μM compared to DMSO (S. mansoni miracidia; 5 μM, 48 h): 50%; Miracidial transformation inhibition at 2 and 0.5 μM (S. mansoni miracidia; 2 and 0.5 μM, 48 h): about 20%; Effect on miracidia at 10 and 50 μM (S. mansoni miracidia; 10 and 50 μM, 48 h): lethal; Effect on adult worm motility at 3.15 μM (S. mansoni adult worms; 3.15 μM, lowest concentration tested): complete cessation of worm mobility; also recorded: completely inhibited; Effect on adult worm motility at 12.5 and 6.25 μM (S. mansoni adult worms; 12.5 and 6.25 μM): particularly active; EC50 (S. mansoni adult worms; Table 3, read-out: Anti-schistosomal activity EC50 (μM) Adult Motility): 85 nM; EC50 (S. mansoni adult worms; commercially sourced batch (c22), Fig. S7, read-out: EC50 on adult worms, original commercially sourced compound): 68.5 nM; EC50 (S. mansoni adult worms; re-synthesised batch (rs22), Fig. S7, read-out: EC50 on adult worms, re-synthesised compound): 73.1 nM; CC50 at 24 h (in vitro): 9.36 µM; Activity on schistosomula in the primary screen at 10 μM (S. mansoni schistosomula; 10 μM, 72 h): retained activity; EC50 (S. mansoni schistosomula; 72 h, Table 1, 72 h, two dose response titrations (0.313–10 μM), 95% CI in brackets, read-out: Activity on schistosomula (EC50, μM - 72 h) Motility): 0.38 µM; EC50 (S. mansoni schistosomula; 72 h, Table 1, 72 h, two dose response titrations (0.313–10 μM), 95% CI in brackets, read-out: Activity on schistosomula (EC50, μM - 72 h) Phenotype): 0.4 µM; EC50 (S. mansoni schistosomula; 72 h, Table 1, mean of phenotype and motility EC50, 72 h, read-out: Activity on schistosomula (EC50, μM - 72 h) Average): 0.39 µM; EC50 (S. mansoni schistosomula; Table 3, read-out: Anti-schistosomal activity EC50 (μM) Schistosomula Motility): 0.42 µM; EC50 (S. mansoni schistosomula; Table 3, read-out: Anti-schistosomal activity EC50 (μM) Schistosomula Phenotype): 0.47 µM; EC50 (S. mansoni schistosomula; Table 5, Series C, read-out: Anti-schistosomal activity EC50 Schistosomula (μM) Motility): 0.42 µM; EC50 (S. mansoni schistosomula; Table 5, Series C, read-out: Anti-schistosomal activity EC50 Schistosomula (μM) Phenotype): 0.47 µM; EC50 (S. mansoni schistosomula; commercially sourced batch (c22), Fig. S7, read-out: EC50 on schistosomula, original commercially sourced compound): 0.61 µM; EC50 (S. mansoni schistosomula; re-synthesised batch (rs22), Fig. S7, read-out: EC50 on schistosomula, re-synthesised compound): 0.51 µM
